According to paper PMC8003975 (Cancers, 2021):

How the values were obtained:
Experiment in all cases: Western blot of treated HNC cells
Type in all cases: cell-based, human
[1] = test system: c-Met; details: Cal27, JHU029 and JHU022 cells, 48 hr; 2% or 3% BME, 10 or 20 µg/mL M-I; vs vehicle control
Procedure: (§1) Figure 2 Momordicine-I inhibited c-Met signaling in HNC cells. (A) Cal27, JHU029 […] cells were treated with either 2% BME or 10 µg/mL of M-I and JHU022 cells were treated with either 3% BME or 20 µg/mL dose of M-I. Cell lysates were prepared after 48 hr of treatment and subjected to Western blot analysis using specific antibodies. Representative Western blot images for c-Met expression in Cal27, JHU029 and JHU022 cells are shown. Membrane was reprobed with the antibody for actin as an internal control. (B) Representative Western blot image for phospho-STAT3 (pSTAT3 Tyr-705) and total STAT3 expression in Cal27 and JHU029 cells with BME or M-I treatment. Membrane was reprobed by actin as an internal control. Quantitative representation of Western blot band intensities (right panel). Small bar indicates standard error (* p < 0.05; *** p < 0.001). (C) Cal27 cells were treated with 2% BME or M-I (10 μg/mL) at indicated time points. (D) Cal27 cells were treated with control siRNA or siRNA to c-Met (si-Met) for 48 hr. Cell lysates (from panels c and D) were subjected to analyze by western blot for pSTAT3 or STAT3 using specific antibody. Membranes were reprobed by actin as internal control. Quantitative representation of Western blot band intensities (right panel). Small bar indicates standard error (*** p < 0.001).
(§2) Bitter melon extract (BME) was prepared from the Chinese variety of young bitter melons (raw and green) as described previously. Briefly, BME was prepared by aqueous extraction from whole fruit without seeds using a household juicer at room temperature with subsequent centrifugation at 15000× g at 4 °C for 30 min. BME was stored at −80 °C for further analysis. Cal27 and JHU029 cells were treated with 2% BME and JHU022 cells were treated with 3% BME as described previously. The momordicine-I (>98% pure) was purchased from Chemfaces (Cat. No.: CFN92076; Hubei, China). The powder was dissolved in DMSO and added to the cells at different concentrations. Based on cytotoxicity data, Cal27 and JHU029 cells were treated with 10 µg/mL and JHU022 cells were treated with 20 µg/mL dose of M-I and incubated for 48 hr for further experiments. All the experiments were done at least in triplicate.
(§3) Lysates from control, BME or M-I treated cells and tumors were prepared using 2× SDS sample buffer and subjected to western blot analysis using specific antibodies to c-Met (1: 500, Cell Signaling Technology, CST, Denvers, MA, USA,), phospho- STAT3 (pSTAT3-Tyr-705) (1:1000, CST), total STAT3 (1:1000, CST), c-Myc (1:1000, CST), survivin (1:500, Santa Cruz Biotechnology, SBT, Dallas, TX, USA) and cyclin D1 (1: 500, SBT). HRP conjugated anti-mouse or anti-rabbit secondary antibodies were purchased from Bio-Rad (Hercules, CA, USA). The blot was reprobed with HRP conjugated β-actin antibody (1:5000; SBT) to compare protein load in each lane. Densitometry analysis was done using Image J software (NIH, Bethesda, MD, USA).

[2] = test system: phospho-STAT3 (Tyr-705)
Procedure: as §1, §2, §3

[3] = test system: total STAT3; details: for total STAT3 level, short term treatment: Cal27 cells, 2% BME or 10 μg/mL M-I
Procedure: as §1, §2, §3

[4] = test system: c-Myc; details: Cal27 and JHU029 cells, 48 hr; 2% BME or 10 µg/mL M-I
Procedure: (§4) Figure 3 Momordicine-I inhibits downstream of c-Met signaling in HNC cells. Representative Western blot image for c-Myc, survivin and cyclin D1 expression in Cal27 and JHU029 cells with treatment of BME or M-I. The same membrane used in panel A was reprobed. Actin was used as internal control. Quantitative representation of Western blot band intensities (right panel). Small bar indicates standard error (*** p < 0.001).
as §2, with “triplicate. […]” for “triplicate.”

[5] = test system: cyclin D1; details: Cal27 and JHU029 cells, 48 hr; 2% BME or 10 µg/mL M-I
Procedure: as §4
as §2, with “triplicate. […]” for “triplicate.”

Structure (SMILES): CC(C)=CC(O)CC(C)[C@H]1CC[C@@]2(C)[C@@H]3[C@@H](O)C=C4[C@@H](CC[C@H](O)C4(C)C)[C@]3(C=O)CC[C@]12C (stereo partly drawn) [M-I, (3S, 7S, 8S, 9R, 10R, 13R, 14S, 17R) 3,7-dihydroxy-17-(4-hydroxy-6-methylhept-5-en-2-yl)-4,4,13,14-tetramethyl-2,3,7,8,10,11, 12,15,16,17-decahydro-1H-cyclopenta[a]phenanthrene-9-carbaldehyde]
- c-Met expression [1]: significant reduction
- phospho-STAT3 (Tyr-705) expression ([2]; Cal27 and JHU029 cells, 48 hr, 2% BME or 10 µg/mL M-I): significant reduction
- pSTAT3 level, short term treatment ([2]; Cal27 cells, 15 min, 2% BME or 10 μg/mL M-I): inhibits
- total STAT3 level ([3]; Cal27 and JHU029 cells, 48 hr, 10 µg/mL M-I): substantial reduction
- total STAT3 level, short term treatment ([3]; 15 min): without affecting
- total STAT3 level, short term treatment ([3]; 240 min): inhibited
- c-Myc expression [4]: significant inhibition
- cyclin D1 expression [5]: significant inhibition
